Activity calls are given as the source filed them.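 How the source made its calls: active means compounds whose mean EC50, the dose giving half the maximal reporter activation, is at or below a set limit; inactive means the rest.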
Target: CHO-CHOP luciferase reporter, UPR activation, luminescence
Assay: CHOP reporter induction, apoptotic UPR branch – CHO-CHOP cells, luciferase luminescence, confirmation (AID 489024);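 further: compounds added alone to reporter cells with no tunicamycin stress co-treatment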

Row | Structure (SMILES) | EC50
1 | Cc1cccc(C)c1NC(=O)C(Cl)C(=O)c1ccccc1 (stereo not given) | 19.3 µM
2 | O=C(Nc1ccc(Cl)cc1)/C(=C/c1cccc(O)c1)c1nc2ccccc2s1 | > 80 µM (inactive)
3 | Cc1ccc(C(=O)Oc2ccc(Cl)c3cccnc23)cc1[N+](=O)[O-] | inactive
4 | S=c1[nH]nc(-c2cc(-c3ccccc3)n[nH]2)n1/N=C/C(Br)=C/c1ccccc1 | 7.79 µM
5 | COc1nc(N)nc(NC(=O)c2cccs2)c1N=O | 17.9 µM
6 | COc1ccc(-n2nc(C#N)c(Cl)cc2=O)cc1 | 3.23 µM
7 | COc1cc(/C=C(/C(=O)c2cccs2)c2nc3ccccc3[nH]2)cc(OC)c1O | 9.71 µM
8 | CCc1ccccc1NC(=S)N=Nc1c(O)n(C)c2ccc(S(=O)(=O)N3CCOCC3)cc12 | > 80 µM (inactive)
9 | COC(=O)c1ccc(COc2ccccc2/C=C(\C#N)C(=O)Nc2c(C)cccc2C)cc1 | 11.8 µM
10 | Cc1c(C(=O)c2no[n+]([O-])c2C(=O)c2cnn(C)c2C)cnn1C | > 80 µM (inactive)
11 | C/C(=N\NC(=O)c1ccccc1OCc1ccc(F)cc1)c1ccccn1 | 4.89 µM
12 | CCOC(=O)c1c2ccc(OCC(=O)N/N=C/c3ccc(C)cc3)cc2n2ccccc12 | > 80 µM (inactive)
13 | C/C(=N\NC(=O)COc1ccccc1-c1ccccc1)c1ccccn1 | 6.49 µM
14 | CCOC(=O)c1cnc(-n2nc(C)cc2C)nc1NC1CCCCC1 | > 80 µM (inactive)
15 | CN=c1scc(-c2ccco2)n1/N=C/c1ccc(O)c(O)c1 | 1.23 µM
16 | CC(C)(C)C1=CC(=O)C(=O)C(C(C)(C)C)=C1 | 7.59 µM
17 | CC(C)N1C(=O)/C(=C/C=C/c2ccco2)C(=O)N(Cc2ccco2)C1=O | 8.46 µM
18 | CCN(CC)c1ccc(C=C2C(=O)NC(=S)NC2=O)cc1 | 11.9 µM
19 | Cc1cc(C(=O)CCl)c(C)n1CCc1ccc(F)cc1 | 7.77 µM
20 | CCc1nnc(NC(=O)CSc2nc(-c3ccccc3)cc(-c3ccc(OC)cc3)c2C#N)s1 | 13 µM
21 | O=[N+]([O-])c1ccc(N/N=C/c2cccc(O)c2O)c(S(=O)(=O)N2CCOCC2)c1 | 6.53 µM
22 | C/C(=N\NC(=O)c1ccc(F)cc1)c1ccccn1 | 8.27 µM
23 | CC[C@@H](C)[C@H](NC(=O)OC(C)(C)C)c1nnc(S(=O)(=O)Cc2cc(C)ccc2C)o1 | 15.5 µM
24 | C/C(CC(C)(C)C1CCCCC1)=N\NC(N)=S | 12 µM
25 | C=CCn1nc([N+](=O)[O-])nc1Sc1cccc2cccnc12 | 6.67 µM
26 | O=C(NC1CCCC1)C(c1ccc(F)cc1)N(Cc1ccc(Cl)cc1)C(=O)CCl (stereo not given) | 7.8 µM
27 | C/C(=N\NC(=O)c1cccc2ccccc12)c1ccccn1 | 3.22 µM
28 | CCOc1ccc(NC(=S)NC(=O)/C=C/c2ccc(OC)c(OC)c2)c([N+](=O)[O-])c1 | > 80 µM (inactive)

Row | Structure (SMILES) | EC50
29 | COc1cc2nc(NC(=O)c3ccc(Cl)cc3)sc(=O)c2cc1OC | inactive
30 | CC(=O)N(\C=C/C=C/C=C1\Sc2ccccc2C1=O)c1ccccc1 | > 80 µM (inactive)
31 | O=C(N/N=C/c1ccccn1)c1cc(-c2ccc(Br)cc2)nc2ccccc12 | 2.4 µM
32 | Cc1nc([N+](=O)[O-])c(Br)n1CC(=O)c1ccc2ccccc2c1 | > 80 µM (inactive)
33 | Oc1ccc(-c2cn3ccccc3n2)cc1O | inactive
34 | COc1ccc(C(=O)Nc2ccccc2C(=O)N/N=C/c2ccccn2)cc1OC | 6.44 µM
35 | COc1ccc(/C=N/Nc2cc(C)nc(-n3nc(C)cc3C)n2)cc1 | 10.4 µM
36 | COCCN=c1scc(-c2cccs2)n1/N=C/c1ccc(O)c(O)c1O | inactive
37 | O=C(N/N=C/c1cccc2cccnc12)c1ccccc1O | 18.1 µM
38 | CN1C(=O)/C(=C/c2cccn2-c2ccc3ccccc3c2)C(=O)NC1=S | 11.7 µM
39 | CCc1nc(N=Nc2c(O)[nH]c3ccccc23)c2c3c(sc2n1)CCC3 | 13.7 µM
40 | CN1CCN(c2ccc(NC(=O)c3ccc([N+](=O)[O-])o3)cc2Cl)CC1 | 0.42 µM
41 | COCc1ccc(O)c2ncccc12 | 15.1 µM
42 | COc1ccc(C(=O)NCC(=O)N/N=C/c2ccc([N+](=O)[O-])o2)cc1OC | > 80 µM (inactive)
43 | Cc1ccc(Cc2cnc(NC(=O)/C(C#N)=C/c3ccc(-c4cccc([N+](=O)[O-])c4)o3)s2)cc1 | 14.7 µM
44 | COc1ccc(C(=O)Sc2ccc(Cl)cc2)cc1OC | 9.38 µM
45 | O=S(=O)(CCSc1nc2ccccc2s1)c1nc2ccccc2s1 | 11.6 µM
46 | O=C(/C(=C/c1ccc(Cl)cc1)c1nc2ccccc2[nH]1)c1ccccc1 | 6.57 µM
47 | COC(=O)c1c(NC(=O)CC2Nc3ccccc3NC2=O)sc(C)c1C (stereo not given) | inactive
48 | CC1=CC(C)(C)Nc2ccc(OC(=O)CN3C(=O)C4CCCCC4C3=O)cc21 (stereo not given) | 8.07 µM
49 | CC(=O)Oc1ccc(OC(C)=O)c(SCCCCCN2CCOCC2)c1 | 16.1 µM
50 | CCOC(=O)N1CCN(Cc2cc(Cl)c3cccnc3c2O)CC1 | inactive
51 | Oc1ccc(-c2csc(Nc3ccccn3)n2)cc1O | 3.7 µM
52 | CCCCNC1C(CC)C(CCC)C(C#N)(C#N)C1(C#N)C#N (stereo not given) | > 80 µM (inactive)
53 | COc1ccc(OC)c(N=Cc2c(O)c3ccccc3oc2=O)c1 | 7.55 µM
54 | Cn1nc([N+](=O)[O-])c(C(C#N)c2ccccn2)c(Cl)c1=O (stereo not given) | > 80 µM (inactive)
55 | O=C1C(CSCc2ccccc2)NC(=S)N1c1ccccc1 (stereo not given) | inactive

— PubChem BioAssay AID489024 (Sanford-Burnham Center for Chemical Genomics, 2010)
